Measured values as given in PubChem BioAssay AID330 (DTP/NCI, 2004).
“And” between values parts separate entries of the source, which are not always exact repeats. Equal values may be shown once. Inconclusive results and toxic doses are left out.

Test system: P388 leukemia ip, CD2F1 mice, survival T/C
Assay: NCI In Vivo Anticancer Drug Screen. Data for tumor model P388 Leukemia (intraperitoneal) in CD2F1 (CDF1) mice
Settings: endpoint: median survival time, higher = longer survival
Method in brief: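 Mice carrying the transplanted tumor received test compound or vehicle. Survival was recorded in each group, and the value is the treated-group measurement divided by that of the vehicle-treated control group.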

[1] = dose: 50.0 mg/kg/injection, schedule: Q01DX009 (ip), vehicle: saline with Tween-80
[2] = dose: 100.0 mg/kg/injection, schedule: Q01DX009 (ip), vehicle: saline with Tween-80
[3] = dose: 200.0 mg/kg/injection, schedule: Q01DX009 (ip), vehicle: saline with Tween-80
[4] = dose: 200.0 mg/kg/injection, schedule: Q04DX003 (ip), vehicle: saline
[5] = dose: 60.0 mg/kg/injection, schedule: Q01DX005 (ip), vehicle: saline with Tween-80
[6] = dose: 120.0 mg/kg/injection, schedule: Q01DX005 (ip), vehicle: saline with Tween-80
[7] = dose: 240.0 mg/kg/injection, schedule: Q01DX005 (ip), vehicle: saline with Tween-80

SMILES: CN(/N=C/c1ccc(N(C)C)cc1)C(=O)c1ccccc1N
- T/C [1]: 100 % of control
- T/C [2]: 93 % of control
- T/C [3]: 94 % of control

SMILES: Nc1ccn(C2OC(CO)C(O)C2O)c(=O)n1 (stereo unspecified)
- T/C (dose: 2.0 mg/kg/injection, schedule: Q01DX009 (ip), vehicle: saline): 160 % of control
- T/C (dose: 10.0 mg/kg/injection, schedule: Q01DX005 (ip), vehicle: saline): 160 % of control
- T/C (dose: 60.0 mg/kg/injection, schedule: Q01DX005 (ip), vehicle: saline): 190 % of control
- T/C (dose: 100.0 mg/kg/injection, schedule: Q04DX002 (ip), vehicle: saline): 120 % of control
- T/C (dose: 128.0 mg/kg/injection, schedule: Q01DX009 (ip), vehicle: saline): 170 % of control and 250 % of control
- T/C (dose: 200.0 mg/kg/injection, schedule: Q01DX005 (ip), vehicle: saline): 200 % of control
- T/C (dose: 200.0 mg/kg/injection, schedule: Q01DX009 (ip), vehicle: saline): 100 % of control
- T/C [4]: 100 % of control
- T/C (dose: 324.0 mg/kg/injection, schedule: Q04DX003 (ip), vehicle: saline): 190 % of control
- T/C (dose: 400.0 mg/kg/injection, schedule: Q01DX009 (ip), vehicle: saline with Tween-80): 100 % of control
- T/C (dose: 400.0 mg/kg/injection, schedule: Q01DX009 (ip), vehicle: saline): 99 % of control and 110 % of control
- T/C (dose: 500.0 mg/kg/injection, schedule: Q04DX003 (ip), vehicle: saline): 200 % of control
- T/C (dose: 512.0 mg/kg/injection, schedule: Q01DX009 (ip), vehicle: saline): 90 % of control
- T/C (dose: 800.0 mg/kg/injection, schedule: Q01DX009 (ip), vehicle: saline with Tween-80): 99 % of control
- T/C (dose: 800.0 mg/kg/injection, schedule: Q01DX009 (ip), vehicle: saline): 110 % of control and 91 % of control
- T/C (dose: 900.0 mg/kg/injection, schedule: Q04DX003 (ip), vehicle: saline): 210 % of control
- T/C (dose: 1200.0 mg/kg/injection, schedule: Q01DX009 (ip), vehicle: saline with Tween-80): 100 % of control
- T/C (dose: 1600.0 mg/kg/injection, schedule: Q01DX009 (ip), vehicle: saline): 91 % of control
- T/C (dose: 1600.0 mg/kg/injection, schedule: Q04DX002 (ip), vehicle: saline): 120 % of control
- T/C (dose: 2400.0 mg/kg/injection, schedule: Q01DX009 (ip), vehicle: saline with Tween-80): 90 % of control

SMILES: CSC(=S)n1nc(-c2cccs2)c(N=Nc2ccc(Cl)cc2)c1C(F)(F)F
- T/C [5]: 92 % of control
- T/C [6]: 100 % of control
- T/C [7]: 111 % of control

SMILES: CSCOC/C=C(\C)CCC=C(C)C
- T/C [1]: 98 % of control
- T/C [2]: 100 % of control
- T/C [3]: 114 % of control

SMILES: O=C(c1cccnc1)C(CCc1ccccn1)c1ccccn1 (stereo unspecified)
- T/C (dose: 100.0 mg/kg/injection, schedule: Q04DX003 (ip), vehicle: saline): 100 % of control
- T/C [4]: 100 % of control

SMILES: CCCCCCCCCCCCCCCC[N+](C)(C)CCN=[N+]=[N-]
- T/C (dose: 12.5 mg/kg/injection, schedule: Q01DX009 (ip), vehicle: saline with Tween-80): 110 % of control
- T/C (dose: 25.0 mg/kg/injection, schedule: Q01DX009 (ip), vehicle: saline with Tween-80): 107 % of control

SMILES: N#Cc1c2c(c(Cl)n3c1nc1ccccc13)CCC2
- T/C [5]: 100 % of control
- T/C [6]: 91 % of control
- T/C [7]: 91 % of control

SMILES: COC(=O)/C(CC(=O)O)=C(\c1ccc2c(c1)OCO2)c1cc(OC)c(OC)c(OC)c1
- T/C (dose: 100.0 mg/kg/injection, schedule: Q04DX002 (ip), vehicle: Klucel (hydroxypropylcellulose) (HPC)): 100 % of control
- T/C (dose: 200.0 mg/kg/injection, schedule: Q04DX002 (ip), vehicle: Klucel (hydroxypropylcellulose) (HPC)): 103 % of control
- T/C (dose: 400.0 mg/kg/injection, schedule: Q04DX002 (ip), vehicle: Klucel (hydroxypropylcellulose) (HPC)): 100 % of control

SMILES: C1CCN2COCC2C1 (stereo unspecified)
- T/C (dose: 12.5 mg/kg/injection, schedule: Q01DX005 (ip), vehicle: saline): 108 % of control
- T/C (dose: 25.0 mg/kg/injection, schedule: Q01DX005 (ip), vehicle: saline): 117 % of control
- T/C (dose: 100.0 mg/kg/injection, schedule: Q01DX005 (ip), vehicle: saline): 120 % of control and 122 % of control

SMILES: CN1C=NNC(=O)c2ccccc21
- T/C [1]: 86 % of control
- T/C [2]: 87 % of control
- T/C [3]: 102 % of control

SMILES: O=C(O)CC1C=CC2C=CC1C=C2 (stereo unspecified)
- T/C (dose: 50.0 mg/kg/injection, schedule: Q01DX005 (ip), vehicle: saline with Tween-80): 101 % of control
- T/C (dose: 100.0 mg/kg/injection, schedule: Q01DX005 (ip), vehicle: saline with Tween-80): 100 % of control
- T/C (dose: 200.0 mg/kg/injection, schedule: Q01DX005 (ip), vehicle: saline with Tween-80): 99 % of control

SMILES: CC1(C)Oc2cc3oc(=O)ccc3c3c2C2C1CCC(C)(O3)C2O (stereo unspecified)
- T/C (dose: 50.0 mg/kg/injection, schedule: Q01DX005 (ip), vehicle: Klucel (hydroxypropylcellulose) (HPC)): 102 % of control
- T/C (dose: 100.0 mg/kg/injection, schedule: Q01DX005 (ip), vehicle: Klucel (hydroxypropylcellulose) (HPC)): 96 % of control
- T/C (dose: 200.0 mg/kg/injection, schedule: Q01DX005 (ip), vehicle: Klucel (hydroxypropylcellulose) (HPC)): 105 % of control
